Experimental data: PubChem BioAssay AID2036 (NMMLSC, 2009)
Calls of active or inactive are those of the source. No rule for the calls is given here.

molecular target: Ras-related protein Rab7, wildtype (dog); assay: Rab7 GTP binding inhibitors, further analogs, SAR follow-up, biochemical, additional analogs, wildtype, multiplex bead flow cytometry (AID 2036); details: not given

| SMILES | EC50 |
| --- | --- |
| O=Nc1c(-c2c(O)[nH]c3c(F)cccc23)[nH]c2ccccc12 | inactive |
| O=Nc1c(-c2c(O)[nH]c3ccccc23)[nH]c2ccccc12 | inactive |
| O=C1C(c2c(O)[nH]c3c(F)cccc23)=Nc2ccccc21 | inactive |
| O=C1C(c2c(O)[nH]c3ccc(Br)cc23)=Nc2ccccc21 | inactive |
| O=C1C(c2c(O)[nH]c3c(Cl)cccc23)=Nc2ccccc21 | inactive |
| O=C1C(c2c(O)[nH]c3c(Br)cccc23)=Nc2ccccc21 | inactive |
| O=Nc1c(-c2c(O)[nH]c3c(Cl)cccc23)[nH]c2ccccc12 | inactive |
| O=Nc1c(-c2c(O)[nH]c3ccc(Br)cc23)[nH]c2ccccc12 | inactive |
| O=C1C(c2c(O)[nH]c3ccccc23)=Nc2ccccc21 | inactive |
| O=Nc1c(-c2c(O)[nH]c3c(Br)cccc23)[nH]c2ccccc12 | inactive |
| O=C1N=c2ccccc2=C1c1[nH]c(=S)[nH]c1O | inactive |
| O=C1N=c2ccccc2=C1c1[nH]c(=O)[nH]c1O | inactive |

same assay, conditions: measured here: Ki from EC50

| SMILES | Ki [nM] |
| --- | --- |
| CC(C)Cc1ccc([C@H](C)C(=O)O)cc1 | 310 |
| O=C1C(c2c(O)[nH]c3c(F)cccc23)=Nc2ccccc21 | 1560 |
| COc1cc(-c2c(C#N)c(N)n(S(=O)(=O)c3c(C(C)C)cc(C(C)C)cc3C(C)C)c2C(=O)c2ccccc2)cc(OC)c1OC | 2170 |
| CSc1ccc(/C=C2/C(C)=C(CC(=O)O)c3cc(F)ccc32)cc1 | 2700 |
| COc1ccc(S(=O)(=O)n2c(N)c(C#N)c(-c3cncc(Br)c3)c2C(=O)c2ccccc2)cc1 | 540 |
| O=C1N=c2ccccc2=C1c1[nH]c(=S)[nH]c1O | 870 |
